Target: tau (Homo sapiens, UniProt P10636)
Test: MCE Phenols Library screening, tau biosensor cell seeding assay (AvZ)
Format: cell-based
Conditions: for AvZ (average z score of seeding, SDs from the mean level of seeding): 10 μM phenol in cell cultures, AD brain homogenate preincubated 16 hours, two biological replicates, positive = catalyzes seeding, negative = inhibits; for Z repl 1 / Z Repl 2: Z score; for Z repl 1 / raw data 1: replicate 1; for Z Repl 2 / raw data 2: replicate 2
[1] = average Z score of the two replicates, tau seeding
[2] = average Z score of the two replicates, tau biosensor seeding, MCE Phenols Library screen
[3] = average Z score of the two replicates, MCE Phenols Library screen
[4] = average puncta of the two replicates
[5] = average Z score of two replicates, Phenols Library screen

tau, sequence (P10636 623-695 limits assumed): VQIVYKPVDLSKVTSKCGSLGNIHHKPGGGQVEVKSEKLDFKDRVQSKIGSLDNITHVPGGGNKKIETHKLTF

Compound | AvZ (average z score of seeding, SDs from the mean level of seeding) | Z repl 1 | Z Repl 2 | av puncta (average of raw data 1 and 2) | raw data 1 (puncta) | raw data 2 (puncta) | av Z [1] | av Z [2] | av Z [3] | av puncta [4] | raw data 1 (raw puncta) | raw data 2 (raw puncta) | av Z [5]
NCC(c1ccc(O)cc1)C1(O)CCCCC1 (stereo not drawn) [N,N,O-Tridesmethylvenlafaxine] | 0.955 | 0.959 | 0.951 | 30393 | 37867.4 | 22918.7 |  |  |  |  |  |  | 
C=CCc1ccc(O)c(-c2cc(CC=C)ccc2O)c1 [Magnolol] |  | 0.295 | 1.074 | 27065.9 | 29891.7 | 24240.1 | 0.685 |  |  |  |  |  | 
C[C@@H]1O[C@@H](Oc2c(-c3ccc(O)cc3)oc3cc(O[C@@H]4O[C@@H](C)[C@H](O)[C@@H](O)[C@H]4O[C@@H]4O[C@H](CO)[C@@H](O)[C@H](O)[C@H]4O)cc(O)c3c2=O)[C@H](O)[C@H](O)[C@H]1O [Grosvenorine] |  | 0.758 | 0.703 | 27858.6 | 35445.3 | 20271.9 |  | 0.73 |  |  |  |  | 
COc1cc(O)c2c(=O)cc(-c3ccc(O)c(O)c3)oc2c1 [Hydroxygenkwanin] |  | -0.407 | -0.493 |  |  |  |  |  | -0.45 | 14482.9 | 21459.9 | 7505.79 | 
COc1cc(CNC(=O)CCCCCCCC(C)C)ccc1O [Homodihydrocapsaicin I] | -0.169 | -0.665 | 0.327 | 17309.6 | 18361.4 | 16257.8 |  |  |  |  |  |  | 
COc1cc(/C=C/C(=O)O[C@H]2[C@H](O)C[C@](O)(C(=O)O)C[C@H]2O)ccc1O [4-Feruloylquinic acid] |  | -1.622 | -0.646 | 6372.47 | 6875.06 | 5869.87 |  |  | -1.134 |  |  |  | 
O=c1c(O[C@@H]2O[C@H](CO)[C@H](O)[C@H](O)[C@H]2O)c(-c2ccc(O)c(O)c2)oc2cc(O)cc(O)c12 [Hyperoside] |  | -0.253 | -0.241 |  |  |  |  |  | -0.247 | 16752.5 | 23311.4 | 10193.6 | 
O=C1C=CC(=O)c2c(O)ccc(O)c21 [Naphthazarin] |  | -0.196 | -0.791 |  | 23991 | 4318.06 |  |  | -0.494 | 14154.5 |  |  | 
COc1cc2c(cc1O)-c1cc3ccc(OC)c(OC)c3c[n+]1CC2 [Columbamine] |  | 0.655 | 0.636 | 26887.1 | 34211.5 | 19562.6 | 0.646 |  |  |  |  |  | 
COC(=O)c1ccccc1O [Methyl Salicylate] | -0.502 | -0.127 | -0.877 |  | 24825.4 | 3394.27 |  |  |  | 14109.8 |  |  | 
CC(C)=CCc1c(O)ccc(C(=O)[C@@H]2[C@@H](c3c(O)cc(O)c4c(=O)c(CC=C(C)C)c(-c5ccc(O)cc5O)oc34)C=C(C)C[C@H]2c2ccc(O)cc2O)c1O [Kuwanon H] |  | -0.22 | 0.532 | 21077.1 | 23703 | 18451.1 | 0.156 |  |  |  |  |  | 
COc1cc2c(cc1O)CCN1Cc3c(ccc(OC)c3OC)CC21 (stereo not drawn) [Corypalmine] |  | 0.295 | -0.524 | 18532.2 | 29892.4 | 7171.93 |  |  |  |  |  |  | -0.114
O=c1ccoc2cc(O)ccc12 [7-Hydroxy-4H-chromen-4-one] |  | -0.015 | -0.619 |  |  |  |  |  | -0.317 | 16165.1 | 26174.7 | 6155.6 | 
COc1cccc(OC)c1C(=O)OCc1cc(O)ccc1O[C@@H]1O[C@H](CO)[C@@H](O)[C@H](O)[C@H]1O [Curculigoside] |  | -0.772 | 0.136 |  |  |  |  |  | -0.318 | 15649.1 | 17078.1 | 14220.1 | 
O=C1O[C@H]2[C@@H]3OC(=O)c4cc(O)c(O)c(O)c4-c4c(cc(O)c(O)c4O)C(=O)OC[C@H]2O[C@@H](OC(=O)c2cc(O)c(O)c(O)c2)[C@@H]3OC(=O)c2cc(O)c(O)c3c2[C@@H]2C1=CC(=O)[C@](O)(O3)C2(O)O [Geraniin] |  | -2.121 | -1.184 | 501.022 | 880.948 | 121.096 |  |  | -1.653 |  |  |  | 
O=c1c(O)c(-c2ccc(O)c(O)c2)oc2c(O[C@@H]3O[C@H](CO)[C@@H](O)[C@H](O)[C@H]3O)c(O)cc(O)c12 [Gossypin] |  | -0.561 | -0.884 |  | 19618.8 | 3323.85 |  |  | -0.722 | 11471.3 |  |  | 

Compound | AvZ (average z score of seeding, SDs from the mean level of seeding) | Z repl 1 | Z Repl 2 | av puncta (average of raw data 1 and 2) | raw data 1 (puncta) | raw data 2 (puncta) | av Z [1] | av Z [2] | av Z [3] | av puncta [4] | raw data 1 (raw puncta) | raw data 2 (raw puncta) | av Z [5]
Cc1c(C)c2c(c(C)c1O)CCC(C)(CCCC(C)CCCC(C)CCCC(C)C)O2 (racemic) [DL-alpha-Tocopherol] |  | -0.849 | -0.142 |  | 16151.3 | 11251.7 |  |  | -0.496 | 13701.5 |  |  | 
CCCCCCCCC[C@H](O)CC(=O)CCc1ccc(O)c(OC)c1 [10-Gingerol] | -0.619 | -0.921 | -0.318 |  | 15293.5 | 9373.24 |  |  |  | 12333.4 |  |  | 
O=C1C[C@@H](c2ccc(O)cc2)Oc2cc(O[C@@H]3O[C@H](CO)[C@@H](O)[C@H](O)[C@H]3O)ccc21 [Neoliquiritin] |  | -0.356 | -0.555 |  | 22080.4 | 6836.97 |  |  | -0.455 | 14458.7 |  |  | 
Oc1ccc([C@H]2COc3cc(O)ccc3C2)cc1 [(-)-(S)-Equol] |  | 0.447 | -0.597 | 19047.3 | 31709.7 | 6384.95 |  |  |  |  |  |  | -0.075
CC(Cc1ccc(O)c(O)c1)C(C)Cc1ccc(O)c(O)c1 (stereo not drawn) [Nordihydroguaiaretic acid] |  | -0.326 | 0.012 | 17666.9 | 22434.9 | 12898.9 |  |  |  |  |  |  | -0.157
CC(=O)c1ccc(O)cc1C [4?-Hydroxy-2?-methylacetophenone] | 0.123 | 0.511 | -0.266 | 21207.9 | 32488.1 | 9927.81 |  |  |  |  |  |  | 
COc1cc(O)c2c(=O)cc(-c3ccc(O)cc3)oc2c1 [Genkwanin] |  | 1.231 | 0.655 | 30446.8 | 41129.3 | 19764.4 |  | 0.943 |  |  |  |  | 
Thymopentin [reference compound] | -0.682 | -1.145 | -0.22 |  | 12607.7 | 10414 |  |  |  | 11510.9 |  |  | 
COc1ccc(C[C@@H]2c3cc(Oc4cc(C[C@@H]5c6cc(O)c(OC)cc6CCN5C)ccc4O)c(OC)cc3CCN2C)cc1 [Isoliensinine] |  | 0.107 | 0.423 | 22459.5 | 27639.6 | 17279.4 | 0.265 |  |  |  |  |  | 
COc1c(O)cc2oc(-c3ccccc3)cc(=O)c2c1O [Oroxylin A] |  | -0.11 | -0.323 |  |  |  |  |  | -0.217 | 17171.6 | 25029.5 | 9313.67 | 
COc1cc(C(=O)O[C@H]2[C@@H]3C=CO[C@@H](O[C@@H]4O[C@H](CO)[C@@H](O)[C@H](O)[C@H]4O)[C@@H]3[C@@]3(CO)O[C@@H]23)ccc1O [Picroside II] |  | -0.222 | -0.853 |  | 23683.5 | 3659.57 |  |  | -0.537 | 13671.5 |  |  | 
CC(C)=CCc1c(O)c(CC=C(C)C)c2oc3c(O)cccc3c(=O)c2c1O [8-Deoxygartanin] |  | -0.784 | -0.654 |  | 16933.5 | 5782.42 |  |  | -0.719 | 11358 |  |  | 
O=c1c(-c2ccc(O)c(O)c2)coc2c([C@@H]3O[C@H](CO)[C@@H](O)[C@H](O)[C@H]3O)c(O)ccc12 [3'-Hydroxypuerarin] |  | -0.715 | -0.346 |  | 17766.4 | 9073.25 |  |  | -0.53 | 13419.8 |  |  | 
C[C@@H]1O[C@@H](O[C@@H]2[C@@H](O)[C@H](OCCc3ccc(O)c(O)c3)O[C@H](CO)[C@H]2OC(=O)/C=C/c2ccc(O)c(O)c2)[C@H](O)[C@H](O)[C@H]1O [Verbascoside] |  | -0.258 | -1.055 |  | 23255.9 | 1501.28 |  |  | -0.656 | 12378.6 |  |  | 
COc1ccc(C=O)cc1 [4-Methoxybenzaldehyde] | 0.308 | -0.17 | 0.786 | 22737.8 | 24311 | 21164.6 |  |  |  |  |  |  | 
COc1cc(/C=C/c2ccc(O)cc2)cc(OC)c1 [Pterostilbene] |  | -0.975 | -0.298 |  | 14642.4 | 9586.42 |  |  | -0.636 | 12114.4 |  |  | 
